According to US20100267629A1, “Enterostatin as Therapeutic Agent for Hypoglycemia” (Board of Supervisors of Louisiana State University and …, priority 2006, published 2010):
Like-named read-outs stand apart in the source and are kept apart here.

Tests used:
sheep = details: single-choice diet; cited from earlier work
[1] = peripheral and central administration; cited from earlier work
humans = details: cited from earlier work
islet cells = details: cited from earlier work
AMPK = experiment: pAMPK Western blot in HepG2 cells, 60 min incubation; format: cell-based, human; details: HepG2, one hour incubation
Procedure: In a second experiment, human liver cells (HepG2 cell line, American Type Culture Collection, Manassas, Va.) were grown and maintained in Dulbecco's modified eagle's medium (Gibco, Carlsbad, Calif.) containing 10% fetal bovine serum, penicillin (100 I.U./ml), and streptomycin (100 μg/ml). The cells were then incubated for 60 min with 5 mM glucose and various concentrations of enterostatin (0.001, 0.01, 0.03, 0.1, 1.0 μM). After incubation, the cells were lysed and the cytosolic proteins subjected to Western blot analysis for pAMPK and PKARIIβ.

rabbits = details: single-choice diet; cited from earlier work
[2] = target: T1, beta subunit of ATP synthase (Homo sapiens, UniProt P06576); details: receptor protein on liver plasma membranes; cited from earlier work
T1 construct: from tissue; host or cells: liver plasma membranes
T1 sequence (P06576 48-529): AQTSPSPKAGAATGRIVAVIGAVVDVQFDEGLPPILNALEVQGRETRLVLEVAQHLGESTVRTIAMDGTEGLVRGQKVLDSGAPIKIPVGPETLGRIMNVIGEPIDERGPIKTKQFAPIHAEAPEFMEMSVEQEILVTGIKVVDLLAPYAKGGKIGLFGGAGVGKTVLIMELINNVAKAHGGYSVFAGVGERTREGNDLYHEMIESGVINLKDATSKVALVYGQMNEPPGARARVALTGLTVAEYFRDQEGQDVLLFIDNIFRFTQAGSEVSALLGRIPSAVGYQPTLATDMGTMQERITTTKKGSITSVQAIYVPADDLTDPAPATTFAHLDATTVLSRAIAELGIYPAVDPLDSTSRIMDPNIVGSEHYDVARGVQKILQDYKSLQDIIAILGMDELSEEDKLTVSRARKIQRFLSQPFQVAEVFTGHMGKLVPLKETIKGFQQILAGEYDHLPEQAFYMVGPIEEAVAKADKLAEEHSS
T1 sequence (P25705 44-553 partner): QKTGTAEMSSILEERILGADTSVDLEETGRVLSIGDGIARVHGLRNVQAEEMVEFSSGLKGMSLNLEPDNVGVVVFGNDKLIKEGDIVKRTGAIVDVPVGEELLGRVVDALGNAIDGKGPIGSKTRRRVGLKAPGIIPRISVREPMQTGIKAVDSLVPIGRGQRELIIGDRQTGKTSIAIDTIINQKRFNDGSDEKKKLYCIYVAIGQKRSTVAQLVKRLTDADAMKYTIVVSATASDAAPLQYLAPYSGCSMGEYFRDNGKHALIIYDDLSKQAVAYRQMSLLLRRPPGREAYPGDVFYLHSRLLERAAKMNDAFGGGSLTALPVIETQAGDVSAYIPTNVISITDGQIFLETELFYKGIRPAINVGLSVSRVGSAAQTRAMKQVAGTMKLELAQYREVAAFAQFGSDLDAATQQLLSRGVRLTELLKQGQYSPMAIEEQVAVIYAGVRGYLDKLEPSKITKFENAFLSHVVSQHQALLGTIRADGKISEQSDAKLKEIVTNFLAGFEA
T1 sequence (P36542 26-298 partner): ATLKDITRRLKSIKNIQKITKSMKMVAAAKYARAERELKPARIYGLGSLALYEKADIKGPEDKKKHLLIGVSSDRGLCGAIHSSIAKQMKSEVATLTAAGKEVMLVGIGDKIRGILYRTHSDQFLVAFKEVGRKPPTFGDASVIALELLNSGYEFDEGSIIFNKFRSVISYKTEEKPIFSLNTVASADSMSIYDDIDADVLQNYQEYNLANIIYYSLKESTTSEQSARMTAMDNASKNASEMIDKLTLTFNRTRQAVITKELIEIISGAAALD
T1 sequence (P30049 23-168 partner): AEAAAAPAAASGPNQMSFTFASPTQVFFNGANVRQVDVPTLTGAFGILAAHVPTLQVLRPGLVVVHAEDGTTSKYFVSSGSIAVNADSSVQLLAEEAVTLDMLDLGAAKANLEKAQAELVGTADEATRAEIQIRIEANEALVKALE
T1 sequence (P56381 2-51 partner limits assumed): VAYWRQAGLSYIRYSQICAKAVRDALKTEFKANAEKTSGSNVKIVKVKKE

C57B1/6 male mice [3] = experiment: Glucose tolerance test; format: in vivo, mouse; details: 18 h fasted, vs control
Procedure: (§1) Animals: C57B1/6 male mice were purchased from The Jackson Laboratory (Bar Harbor, Me.) at 6 weeks of age. The mice were initially housed in groups of three in acrylic cages in a room with a 12-hour light/dark cycle and with controlled temperature (22 to 23° C.) and with free access to water. The mice were fed a high fat diet (4.78 kcal/g, 56% energy as fat; Research Diets Inc, Brunswick, N.J.). The composition of the diet has been previously described (15). Body weights were measured three time per week. At 8 weeks of age, the mice were switched to single housing.
(§2) Peptide Injections: Enterostatin was dissolved in 0.1 ml saline (0.9% NaCl w/v), and given as a single dose of either 5 μg or 25 μg/mouse. Either enterostatin or saline (control) was injected intraperitoneally. In the experiments involving insulin, insulin (0.75 mU/g body weight) or saline (0.1 ml/10 g body weight; control) was injected intraperitoneally.
Enterostatin Effect on Glucose Tolerance Tests: For glucose tolerance tests, mice were fasted overnight (18 hours). Enterostatin (5 or 25 ug/mouse in 0.1 ml saline vehicle) or saline vehicle was injected intraperitoneally (ip) 20 minutes before an intraperitoneal injection of glucose (1.0 mg/gm body weight). Blood samples were taken from the tail vein immediately before glucose administration, and then at 15, 30, 45 and 60 min after glucose injection. […]

rats [4] = details: cited from earlier work
[5] = target: brain membrane preparation; details: low affinity binding; cited from earlier work
baboons = details: single-choice diet; cited from earlier work
rats [6] = details: cited from earlier work; for Duration of action on feeding: single injection
C57B1/6 male mice [7] = experiment: Blood glucose response to insulin; format: in vivo, mouse
Procedure: as §1, §2
Enterostatin Effect on Blood Glucose Response to Insulin. To test the effect of enterostatin on the blood glucose response to exogenous insulin, mice were fasted for 4 hours, and insulin (0.75 mU/gm body weight) or saline (0.1 ml/10 gm body weight) was injected intraperitoneally at time zero. Enterostatin (5 or 25 ug/mouse in 0.1 ml saline vehicle) or saline vehicle was also injected intraperitoneally (ip) at time zero. Blood samples were taken from the tail vein immediately before the injections, and then at 15, 30, 45 and 60 minutes afterwards. The samples were assayed for glucose on a glucometer (Ascencia Elite XL, Bayer, Pittsburgh, Pa.).

[8] = indirect calorimetry; cited from earlier work
[9] = test system: SK-N-MC neuroepithelioma cells; details: cited from earlier work
[10] = three-choice macronutrient diet

## Enterostatin: aminoterminal pentapeptide of procolipase released when procolipase is converted into colipase (VPDPR; printed: Val-Pro-Asp-Pro-Arg)
sheep
  Food intake: reduce food intake
[1]
  Insulin levels: reduction in insulin levels
  Plasma glucose: without any changes in plasma glucose
humans
  Food intake: not been found to reduce food intake
humans; intravenous injection
  Subjective feeling of hunger: reduce the subjective feeling of hunger
Islet cells; glybenclamide 5.0 and 10 μM
  Insulin secretion stimulated by glybenclamide: inhibited insulin secretion
Islet cells; increase produced by U50,488 100 nM
  Intracellular cyclic AMP content: reduced the increase in intracellular cyclic AMP content
Islet cells; islets, 16.7 mM glucose, 10^−9 to 10^−5 M, dose-dependent
  Insulin secretion: inhibited insulin secretion
Islet cells; isolated pancreatic islets
  Doses inhibiting insulin secretion: 10^−10 to 10^−6 M
Islet cells; kappa-opioid agonist U50,488 100 nM
  Insulin secretion stimulated by U50,488: inhibited insulin secretion
Islet cells; phorbol 12-myristate-13-acetate 50 and 100 nM
  Insulin secretion stimulated by TPA: inhibited insulin secretion
AMPK
  Dose of peak effect on pAMPK: 0.01 μM
AMPK; 5 mM glucose
  pAMPK levels: increase in pAMPK levels
rabbits
  Food intake: reduce food intake
[2]
  Kd: 2.5 nM
C57B1/6 male mice [3]; 5 μg/mouse ip 20 min before glucose 1.0 mg/gm
  Clearance of blood glucose: no differences
C57B1/6 male mice [3]; 25 μg/mouse ip 20 min before glucose 1.0 mg/gm
  Clearance of blood glucose: no differences
Rats [4]; chronic icv, HF diets
  Fat deposition and body weight gain: reduction in fat deposition and body weight gain
Rats [4]; chronic icv, single-choice HF or two-choice HF/LF diet
  Daily intake of dietary fat: attenuated the daily intake of dietary fat
Rats [4]; chronic treatment, low-fat diet for seven days
  Energy intake or change in body weight gain: no significant reduction
[5]
  Kd: 230 nM
baboons
  Food intake: reduce food intake
Rats [6]; rats adapted to ad-libitum feeding
  Duration of action on feeding: up to 24 hours
Rats [6]; rats adapted to six-hour feeding schedule
  Duration of action on feeding: lasting up to six hours
Rats [6]; [10]
  Carbohydrate or protein intake: no effect
  Intake of the fat macronutrient: reduced intake of the fat macronutrient
Rats [6]; two-choice high-fat / low-fat diet
  Intake of HF and LF diet: reduced only intake of the HF diet
C57B1/6 male mice [7]; 5 μg/mouse ip, at 60 min
  Blood glucose level versus zero-time level after insulin: had not returned to zero-time levels
C57B1/6 male mice [7]; conclusion from insulin response test
  Time for which blood glucose is increased after injection: ≥ 30 min
C57B1/6 male mice [7]; higher dose (25 μg/mouse) ip
  Delay of initial fall in blood glucose in response to insulin: 30 min
C57B1/6 male mice [7]; higher dose (25 μg/mouse) ip, 45 to 60 min
  Blood glucose level versus zero-time level after insulin: remained below the zero-time level
[8]
  Fat oxidation: enhance fat oxidation
[9]
  Kd: 40 nM
